Measured values from US20230047208A1, “RNA Splicing Modulation” (The General Hospital Corporation, priority 2020, published 2023).

Test system: wildtype (WT) human fibroblast cell lines
Assay: Transcriptome-wide splicing by RNA sequencing (RNASeq), exon triplet PSI change;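 for Effect: six WT fibroblast lines treated seven days versus DMSO vehicle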;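 for T-PSI: T-PSI is average treated PSI after seven days of treatment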
Assay type: cell-based
Design: key to Effect: Exclusion; Inclusion; Unchanged
Source text: FIG. 2A provides a representation of an exon triplet. Exon U is upstream of Exon X, which is upstream of Exon D. R1, R2 and R3 represent RNA sequencing (RNASeq) reads spanning the regions between two adjacent exons. UI1, I1X, XI2 and I2D are four regions flanking the four splice sites of the exon-triplet. Each flanking region consists of 25 exonic base pairs and 75 intronic base pairs.
FIG. 2B provides a volcano plot showing the ψ (PSI: Percent Spliced-In) changes in splicing after treatment with Compound (I). Each dot represents one of the 161,097 expressed exon triplets in human fibroblasts. The x axis represents the ψ changes after treatment and the y axis represents the False Discovery Rate (FDR) (log 10 transformed). […] The horizontal dashed line indicates an FDR of 0.1. The dots on the right side of the right vertical dashed line and above the horizontal dashed line represent the exon-triplets with an increase for Exon X inclusion (Δψ≥0.1 and FDR<0.1) while the dots on left side of the left vertical dashed line and above the horizontal dashed line represent an increase for Exon X exclusion (Δψ≤−0.1 and FDR<0.1). Black dots in-between the two vertical dashed lines represent exon-triplets unchanged from the treatment.
In some aspects, analysis is performed on data derived from the assay to measure the magnitude of splicing to determine the amount of exons spliced into an mRNA transcript that is produced in the presence of Compound (I) relative to the amount in the absence of Compound (I) or presence of a negative control. In a preferred aspect, the method utilized is calculation of change in Percent Spliced In (ΔPSI). […] The ΔPSI value is derived from the formula: […]
The values for “a” and “b” represent the number of reads supporting the probability for potential inclusion or exclusion of an exon in an RNA transcript. The “a” value is derived from the number of reads within an exon triplet covering, in 5′ to 3′ order: the last few bases (>1 nucleotide) of an upstream exon operably linked to the first few bases (>1 nucleotide) of a middle exon. The “b” value is derived from the number of reads within an exon triplet covering, in 5′ to 3′ order: the last few bases (>1 nucleotide) of the middle exon operably linked to the first few bases (>1 nucleotide) of a downstream exon. The number of reads will indicate whether the splice junction of a middle exon has been identified as potentially having a CNN Motif(s) by the CNN Model described herein, wherein the inclusion or exclusion of the middle exon may be modulated in the presence of Compound (I) to produce one or more mature RNA isoforms from the gene transcript. The value for “c” represents the number of reads supporting the exclusion of the middle exon.
The effect on splicing modulation and corresponding splice differences toward exon inclusion or exclusion was determined by counting the RNASeq reads covering two splice junctions of exon triplets (three consecutive exons: Exon U, Exon X, Exon D) and the corresponding intervening introns, then comparing the change in Percent Spliced In (ΔPSI or Δψ) of the middle exon (Exon X) after treatment (as shown in FIG. 2A)^52,53. 934 exon triplets were identified showing differential middle exon inclusion or exclusion in response to Compound (I) treatment. Of these, 254 were exon inclusion events (Δψ≥0.1 and FDR<0.1) and 680 were exon exclusion events (Δψ≤−0.1 and FDR<0.1) (as shown in FIG. 2B). […] The splicing results were evaluated by RT-PCR in independent replicate experiments, confirming all the calculated Δψ values. […]

[1] = NUTM2A-AS1 Exon 89067714-89067817
[2] = ORMDL1 Exon 190647740-190647849
[3] = OSBPL8 Exon 76853639-76853675, Intron1 76844760-76853638
[4] = OSBPL8 Exon 76853639-76853675, Intron1 76844769-76853638
[5] = OSER1-AS1 Exon 42846007-42846322
[6] = PACRGL Exon 20711306-20711396, Intron1 20706438-20711305
[7] = PACRGL Exon 20711306-20711396, Intron1 20709494-20711305

## Clc1nc(NCc2ccncc2)c2cc[nH]c2n1 [Compound (I), 2-chloro-N-(pyridin-4-ylmethyl)-7H-pyrrolo[2,3-d]pyrimidin-4-amine]
NUTF2 Exon 67881181-67881359
  T-PSI: 0.104
  ΔPSI: −0.003
[1]
  Effect: Exc
  T-PSI: 0.100
  ΔPSI: −0.120
OARD1 Exon 41036580-41036692
  Effect: Exc
  T-PSI: 0.563
  ΔPSI: −0.267
OCRL Exon 128718321-128718344
  Effect: Inc
  T-PSI: 0.364
  ΔPSI: 0.260
ODF2 Exon 131231462-131231632
  Effect: Exc
  T-PSI: 0.872
  ΔPSI: −0.102
ODF2L Exon 86822127-86822285
  Effect: Exc
  T-PSI: 0.514
  ΔPSI: −0.272
OFD1 Exon 13781864-13781974
  Effect: Inc
  T-PSI: 0.981
  ΔPSI: 0.131
OPN3 Exon 241767722-241767881
  Effect: Unc
  T-PSI: 0.437
  ΔPSI: −0.004
OPTN Exon 13150138-13150289
  Effect: Inc
  T-PSI: 0.387
  ΔPSI: 0.176
OPTN Exon 13150962-13151015
  Effect: Exc
  T-PSI: 0.121
  ΔPSI: −0.220
[2]
  Effect: Exc
  T-PSI: 0.407
  ΔPSI: −0.295
OS9 Exon 58113882-58114046
  Effect: Exc
  T-PSI: 0.344
  ΔPSI: −0.181
[3]
  Effect: Inc
  T-PSI: 0.296
  ΔPSI: 0.200
[4]
  Effect: Inc
  T-PSI: 0.269
  ΔPSI: 0.191
[5]
  Effect: Unc
  T-PSI: 0.153
  ΔPSI: 0.000
P4HA2 Exon 131562390-131562914
  Effect: Unc
  T-PSI: 0.155
  ΔPSI: −0.007
P4HA2 Exon 131562625-131562914
  Effect: Unc
  T-PSI: 0.160
  ΔPSI: −0.007
PACRGL Exon 20709426-20709493
  Effect: Exc
  T-PSI: 0.666
  ΔPSI: −0.179
[6]
  Effect: Exc
  T-PSI: 0.462
  ΔPSI: −0.305
[7]
  Effect: Exc
  T-PSI: 0.563
  ΔPSI: −0.242
PACRGL Exon 20726431-20726511
  Effect: Exc
  T-PSI: 0.095
  ΔPSI: −0.120
PAM Exon 102309820-102310140
  Effect: Exc
  T-PSI: 0.478
  ΔPSI: −0.123
PARD3 Exon 34625127-34625171
  Effect: Unc
  T-PSI: 0.805
  ΔPSI: −0.003
PARD3 Exon 34739245-34739376
  Effect: Exc
  T-PSI: 0.584
  ΔPSI: −0.165
PARL Exon 183551512-183551613
  Effect: Exc
  T-PSI: 0.819
  ΔPSI: −0.118
PARP6 Exon 72543186-72543295
  Effect: Inc
  T-PSI: 0.902
